Experimental data from the supplement of paper PMC10307832.

What was measured:
Assay in all cases: relative viability (nuclei count vs DMSO), 5 days (fraction); higher = more cells survive
[1] = tested on: LCLC-97TM1
In short: (§1)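 Relative viability divides the nuclei count in treated wells by that in vehicle wells. Lung cancer cell lines were seeded in 1536-well plates, dosed by pin tool the next day, and fixed and stained after 5 days in one step with final 0.05% Triton X-100, 1% formaldehyde and 1 ug/ml Hoechst. Dosing was a single drug or a fixed anchor-drug dose plus five library-drug doses (not always all listed) in √10 steps, and values are medians of duplicate plates imaged at 4×.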

[2] = tested on: HARA
In short: as §1

[3] = tested on: NCI-H1793
In short: as §1

[4] = tested on: NCI-H1666
In short: as §1

[5] = tested on: H3255
In short: as §1

[6] = tested on: NCI-H441
In short: as §1

[7] = tested on: HOP-62
In short: as §1

[8] = tested on: NCI-H596
In short: as §1

[9] = tested on: LXF-289
In short: as §1

[10] = tested on: NCI-H2087
In short: as §1

[11] = tested on: COR-L23
In short: as §1

[12] = tested on: NCI-H1437
In short: as §1

Cc1cn(-c2cc(NC(=O)c3ccc(C)c(Nc4nccc(-c5cccnc5)n4)c3)cc(C(F)(F)F)c2)cn1 [Nilotinib] + Cc1nc(Nc2ncc(C(=O)Nc3c(C)cccc3Cl)s2)cc(N2CCN(CCO)CC2)n1 [Dasatinib] (partner 0.075 µM)
relative viability ([1]; first compound 0.001 µM): 0.855
relative viability ([1]; first compound 0.003162 µM): 0.896
relative viability ([1]; first compound 0.01 µM): 0.971
relative viability ([1]; first compound 0.03162 µM): 0.654
relative viability ([1]; first compound 0.1 µM): 0.617
relative viability ([2]; first compound 0.001 µM): 0.325
relative viability ([2]; first compound 0.003162 µM): 0.345
relative viability ([2]; first compound 0.01 µM): 0.289
relative viability ([2]; first compound 0.03162 µM): 0.178
relative viability ([2]; first compound 0.1 µM): 0.112
relative viability ([3]; first compound 0.001 µM): 0.303
relative viability ([3]; first compound 0.003162 µM): 0.407
relative viability ([3]; first compound 0.01 µM): 0.459
relative viability ([3]; first compound 0.03162 µM): 0.283
relative viability ([3]; first compound 0.1 µM): 0.194
relative viability ([4]; first compound 0.001 µM): 0.783
relative viability ([4]; first compound 0.003162 µM): 0.886
relative viability ([4]; first compound 0.01 µM): 0.797
relative viability ([4]; first compound 0.03162 µM): 0.719
relative viability ([4]; first compound 0.1 µM): 0.778
relative viability ([5]; first compound 0.001 µM): 0.381
relative viability ([5]; first compound 0.003162 µM): 0.325
relative viability ([5]; first compound 0.03162 µM): 0.316
relative viability ([5]; first compound 0.1 µM): 0.304
relative viability ([6]; first compound 0.001 µM): 0.523
relative viability ([6]; first compound 0.003162 µM): 0.712
relative viability ([6]; first compound 0.01 µM): 0.632
relative viability ([6]; first compound 0.03162 µM): 0.369
relative viability ([6]; first compound 0.1 µM): 0.417
relative viability ([7]; first compound 0.001 µM): 0.603
relative viability ([7]; first compound 0.003162 µM): 0.67
relative viability ([7]; first compound 0.01 µM): 0.66
relative viability ([7]; first compound 0.03162 µM): 0.491
relative viability ([7]; first compound 0.1 µM): 0.476
relative viability ([8]; first compound 0.001 µM): 0.485
relative viability ([8]; first compound 0.003162 µM): 0.705
relative viability ([8]; first compound 0.01 µM): 0.507
relative viability ([8]; first compound 0.03162 µM): 0.504
relative viability ([8]; first compound 0.1 µM): 0.349
relative viability ([9]; first compound 0.001 µM): 0.214
relative viability ([9]; first compound 0.003162 µM): 0.239
relative viability ([9]; first compound 0.01 µM): 0.188
relative viability ([9]; first compound 0.03162 µM): 0.207
relative viability ([9]; first compound 0.1 µM): 0.136
relative viability ([10]; first compound 0.001 µM): 0.821
relative viability ([10]; first compound 0.003162 µM): 1.33
relative viability ([10]; first compound 0.01 µM): 1.13
relative viability ([10]; first compound 0.03162 µM): 0.357
relative viability ([10]; first compound 0.1 µM): 0.203
relative viability ([11]; first compound 0.001 µM): 0.482
relative viability ([11]; first compound 0.003162 µM): 0.501
relative viability ([11]; first compound 0.01 µM): 0.511
relative viability ([11]; first compound 0.03162 µM): 0.265
relative viability ([11]; first compound 0.1 µM): 0.407
relative viability ([12]; first compound 0.001 µM): 0.366
relative viability ([12]; first compound 0.003162 µM): 0.327
